Columns and labels:
[1] = system: HUVEC cells; assay: HUVEC cells experiment: phospho-tyrosine level after VEGF, flow cytometry; assay type: cell-based, Human; conditions: exposure 3 h, 20 ng/ml VEGF 5 min; A1 and AG1478 1 and 5 μM, 5FU 1 and 5 mM; FIG. 1
Procedure: FIG. 1: Effect of different compounds on the phospho-tyrosine level of HUVEC cells treated with VEGF. On the abscissa: 1 is the IgG control, untreated with VEGF and unexposed to an active ingredient; 2 is the control untreated with VEGF and unexposed to an active ingredient; 3 is the control treated with VEGF but unexposed to an active ingredient; 4 is treated with VEGF and exposed to 1 μM of compound A1; 5 is treated with VEGF and exposed to 5 μM of compound A1; 6 is treated with VEGF and exposed to 1 μM of compound AG1478; 7 is treated with VEGF and exposed to 5 μM of compound AG 1478; 8 is treated with VEGF and exposed to 1 mM of compound 5FU; 9 is treated with VEGF and exposed to 5 mM of compound 5FU. HUVEC cells were exposed to compound A1 (1 μM and 5 μM), to the EGFR inhibitor AG1478 (1 μM and 5 μM) and to 5FU (5-fluorouracile, 1 mM and 5 mM) for 3 h and 20 ng/ml of VEGF were added for 5 min before cell collection. Collected cells were washed twice by PBS and centrifugation (300 g, 5 min) in 50 μL of staining buffer. After removal of the supernatant by aspiration, cell pellets were lysed in 250 μL of fixation/permeabilization solution and kept for 20 min on ice. The PY-100 Alexa 488 antibody and phosphatase inhibitor were added. […] The data was obtained from Cell Quest software (BD) and analyzed by WinMDI 2.9 (free software).

[2] = system: CD34^+CD45^dim peripheral blood cells; assay: Phase I clinical study: CD133/CD117 subpopulations of CD34^+CD45^dim peripheral blood cells, flow cytometry; assay type: in vivo, human
Procedure: Whole blood was collected on pre-treatment (day 1), and on day 2, day 8 and day 29 after treatment. The subpopulation of CD34^+CD45^dim peripheral blood cells identified from whole blood was further identified by cell surface markers of CD133 and CD117 using flow cytometry. Whole blood (800 μL) was supplemented with 4.5 mL of 0.2% BSA-PBS and centrifuged for 5 min (1500 rpm). After the removal of the supernatant by aspiration, 4.5 mL of 0.2% BSA-PBS was added and centrifuged. The cell pellet was mixed with 50 μL of human gamma-globulin. Antibodies (CD34-FITC, CD117-PE, CD45-PerCP and CD133-APC) were added and kept for 45 min at 4 C. An hemolytic agent (4.5 mL) was added and incubated for 10 min. After centrifugation (1500 rpm, 5 min), the supernatant was washed twice. Then, 0.2% BSA-PBS (4.5 mL) was added, and the supernatant was removed by centrifugation (1500 rpm, 5 min). The cell pellet was filled up to 800 μL with BSA-PBS and analyzed by flow cytometry. The percentage (quadrants) of CD34^+CD45^dimCD133+/−CD117+/− cells were analyzed.

[3] = system: VEGFR2^+pY^+ cells in murine peripheral blood; assay: murine blood samples in vivo study (HepG2-inoculated mice), flow cytometry; conditions: 50 or 100 mg/kg p.o. for 14 days
Procedure: Mice, inoculated HepG2 cells, were randomized for three groups by tumor size and treated with vehicle (control), compound A1 (50 mg/kg, p.o.) or compound A1 (100 mg/kg, p.o.) for 14 days. Mice were sacrificed and whole murine blood samples were collected by aspiration from abdominal aorta or heart. The blood was hemolyzed by an hemolytic agent at room temperature for 10 min. After centrifugation (500 g, 5 min), the cells were washed by 1 mL of staining buffer. The cells were then incubated with 100 μL of staining buffer and 5 μL of VEGFR2-PE antibody for 15 min in the dark. Then, the cells were washed and incubated in 500 μL of Fixation/Permeabilization solution for 20 min and washed by Perm/Wash buffer twice. Then, a mixture of antibodies (PY-100, CD45-PerCP-Cy5.5, 5 μL of each) and phosphatase inhibitor were added and incubated for 30 min in the dark. The cells were washed and analyzed by flow cytometry (FACS Calibur, BD). The data was obtained from Cell Quest software (BD) and analyzed by WinMDI 2.9 (free software).

[4] = responders, not significant, FIG. 5A

Compound: CCS(=O)(=O)O.COC(=O)c1ccc2c(c1)NC(=O)/C2=C(\Nc1ccc(N(C)C(=O)CN2CCN(C)CC2)cc1)c1ccccc1 [compound A1, 3-Z-[1-(4-(N-((4-methyl-piperazin-1-yl)-methylcarbonyl)-N-methyl-amino)-anilino)-1-phenyl-methylene]-6-methoxycarbonyl-2-indolinone-monoethanesulphonate]
- phospho-tyrosine levels of HUVEC cells [1]: suppressed
- CD34^+CD45^dimCD133^+CD117^+ cells in responders (stable disease) compared to non-responders ([2]; after treatment, RES n=12, PD n=4, FIG. 5B): tended to decrease
- percentage of CD34^+CD45^dimCD133^+CD117^+ cells ([2]; patients with advanced solid tumors, day 29 compared with pre-treatment, p<0.001, FIG. 4A): significantly increased
- percentage of CD34^+CD45^dimCD133^−CD117^+ cells ([2]; patients with advanced solid tumors, day 29 compared with pre-treatment, p<0.01, FIG. 4A): decreased
- CD34^+CD45^dimCD133^+ cells ([2]; patients, day 29, FIG. 4B): significantly increased
- CD34^+CD45^dimCD117^+ cells ([2]; patients, day Band day 29, FIG. 4C): significantly decreased
- CD34^+CD45^dimCD117^+ cells in responders (stable disease) [2, 4]: tended to decrease
- CD34^+CD45^dimCD133^+ cells in responders (stable disease) [2, 4]: tended to decrease
- number of VEGFR2^+CD45^dimpY^+ cells ([3]; FIG. 2): seems to decrease
- VEGFR2^+pY^+ cells in murine peripheral blood ([3]; FIG. 3): suppressed

From US8802384B2, “Method or system using biomarkers for the monitoring of a treatment” (priority 2009, dated 2014)
